Assays:
Test in all cases: relative viability (nuclei count vs DMSO), 5 days (fraction); higher = more cells survive
Linsitinib = compound: C[C@]1(O)C[C@@H](c2nc(-c3ccc4ccc(-c5ccccc5)nc4c3)c3c(N)nccn32)C1 [Linsitinib]
In short: (§1)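 Cells of lung cancer lines were placed in 1536-well plates and kept overnight at 37 °C. Pinning then delivered five library-drug doses (not always all listed), spaced by √10, onto plates anchored with vehicle, and the cells were left 5 days without changing medium. One step fixed, permeabilised and stained them with Hoechst, and MetaXpress counted nuclei in 4× images. Viability, as a median over plates, is treated-well nuclei divided by vehicle-well nuclei, with acceptance only at control CV below 25% and at least one doubling.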

Ispinesib = compound: Cc1ccc(C(=O)N(CCCN)[C@@H](c2nc3cc(Cl)ccc3c(=O)n2Cc2ccccc2)C(C)C)cc1 [Ispinesib]
In short: as §1

Ispinesib + Tozasertib = compound: Cc1ccc(C(=O)N(CCCN)[C@@H](c2nc3cc(Cl)ccc3c(=O)n2Cc2ccccc2)C(C)C)cc1 [Ispinesib] + Cc1cc(Nc2cc(N3CCN(C)CC3)nc(Sc3ccc(NC(=O)C4CC4)cc3)n2)n[nH]1 [Tozasertib] (partner 0.1 µM)
In short: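 Relative viability divides the nuclei count in treated wells by that in vehicle wells. Lung cancer cell lines were seeded in 1536-well plates, dosed by pin tool the next day, and fixed and stained after 5 days in one step with final 0.05% Triton X-100, 1% formaldehyde and 1 ug/ml Hoechst. Dosing was a single drug or a fixed anchor-drug dose plus five library-drug doses (not always all listed) in √10 steps, and values are medians of duplicate plates imaged at 4×.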

Which results are given for UMC-11?
relative viability (Linsitinib; 0.01 µM): 0.975; relative viability (Linsitinib; 0.03162 µM): 0.854; relative viability (Linsitinib; 0.1 µM): 1.02; relative viability (Linsitinib; 0.3162 µM): 0.546; relative viability (Linsitinib; 1 µM): 0.875; relative viability (Linsitinib; 1 µM, anchor plate): 1.01; relative viability (Ispinesib; 0.001 µM): 1.01; relative viability (Ispinesib; 0.003162 µM): 1.02; relative viability (Ispinesib; 0.01 µM): 0.835; relative viability (Ispinesib; 0.03162 µM): 0.32; relative viability (Ispinesib; 0.1 µM): 0.264; relative viability (Ispinesib + Tozasertib; first compound 0.001 µM): 0.201; relative viability (Ispinesib + Tozasertib; first compound 0.003162 µM): 0.201; relative viability (Ispinesib + Tozasertib; first compound 0.01 µM): 0.212; relative viability (Ispinesib + Tozasertib; first compound 0.03162 µM): 0.189; relative viability (Ispinesib + Tozasertib; first compound 0.1 µM): 0.205

Source: the supplement of paper PMC10307832
